In brackets after ≈: the same amount, converted by molar mass. Read-outs that look alike come from different tables or passages of the source.
Tests used:
Assay in all cases: Antibacterial activity (MIC), agar dilution
Format in all cases: cell-based
[1] = test system: E. coli NIHJ JC-2; conditions: Escherichia coli, NIHJJC2, 20 h
Excerpt: (§1) The amount of bacteria inoculated was 10^4 cells per plate (10^6 cells per ml).

[2] = test system: Ps. aeruginosa IFO3445; conditions: Pseudomonas aeruginosa
Excerpt: as §1

[3] = test system: Kl. pneumoniae Y-41; conditions: Klebsiella pneumoniae, Y41, 10^6 cells per ml, 37° C., 20 hours, read-out: MIC
Excerpt: as §1

[4] = test system: Pro. vulgaris GN3027; conditions: Proteus vulgaris, GN3027, 20 h, Pro. vulgaris GN3027; 10^6 cells per ml; 37° C., 20 hours; read-out: MIC
Excerpt: as §1

[5] = test system: St. aureus FDA209P; conditions: Staphylococcus aureus, FDA209P, 20 h
Excerpt: as §1

[6] = test system: Pro. mirabilis T-111; conditions: Proteus mirabilis, 37° C.
Excerpt: as §1

[7] = test system: E. coli TK-111; conditions: Escherichia coli, TK111, 20 h, E. coli TK-111; 10^6 cells per ml; 37° C., 20 hours; read-out: MIC
Excerpt: as §1

[8] = test system: Pro. morganii T-216; conditions: Morganella morganii, 37° C.
Excerpt: as §1

[9] = test system: Aci. antitratus A-6; conditions: 20 h
Excerpt: as §1

[10] = test system: Ps. aeruginosa S-68; conditions: Pseudomonas aeruginosa
Excerpt: as §1

[11] = test system: Kl. pneumoniae Y-50; conditions: Klebsiella pneumoniae, Y50, 20 h, 10^6 cells per ml, 37° C., read-out: MIC
Excerpt: as §1

[12] = test system: Ent. cloacae IID977; conditions: Enterobacter cloacae, IID977, 20 h
Excerpt: as §1

[13] = test system: Kl. pneumoniae Y-4*; conditions: Klebsiella pneumoniae, 20 h, Kl. pneumoniae Y-4, penicillinase-producing; 10^6 cells per ml; read-out: MIC
Excerpt: as §1
(§2) * Penicillinase-producing bacteria

[14] = test system: Ps. aeruginosa GN3379*; conditions: Pseudomonas aeruginosa, Ps. aeruginosa GN3379, penicillinase-producing, 10^6 cells per ml
Excerpt: as §1, §2

[15] = test system: St. aureus F-137*; conditions: Staphylococcus aureus, 20 h
Excerpt: as §1, §2

[16] = test system: E. coli TK-3*; conditions: Escherichia coli, 20 h
Excerpt: as §1, §2

[17] = test system: Ps. aeruginosa GN918**; conditions: Pseudomonas aeruginosa, Ps. aeruginosa GN918, cephalospolinase-producing, 10^6 cells per ml
Excerpt: as §1
(§3) ** Cephalospolinase-producing bacteria

[18] = test system: E. coli GN5482**; conditions: Escherichia coli, 20 h; E. coli GN5482, cephalospolinase-producing; 10^6 cells per ml; read-out: MIC
Excerpt: as §1, §3

[19] = test system: Pro. vulgaris GN76**; conditions: Proteus vulgaris
Excerpt: as §1, §3

[20] = E. coli NIHJ JC-2, 10^6 cells per ml, 37° C., 20 hours, read-out: MIC
[21] = Ps. aeruginosa IFO3445, 10^6 cells per ml, 37° C., 20 hours, read-out: MIC
[22] = St. aureus FDA209P, 10^6 cells per ml, 37° C., 20 hours, read-out: MIC
[23] = Aci. antitratus A-6, 10^6 cells per ml, 37° C., 20 hours, read-out: MIC
[24] = Ent. cloacae IID977, 10^6 cells per ml, 37° C., 20 hours, read-out: MIC
[25] = St. aureus F-137, penicillinase-producing, 10^6 cells per ml, read-out: MIC
[26] = E. coli TK-3, penicillinase-producing, 10^6 cells per ml, read-out: MIC
[27] = 20 h, Pro. vulgaris GN76, cephalospolinase-producing, 10^6 cells per ml, read-out: MIC
[28] = S68, Ps. aeruginosa S-68, 10^6 cells per ml, 37° C., 20 hours, read-out: MIC
[29] = T216, 10^6 cells per ml, 20 hours, read-out: MIC

SMILES: O=C(O)c1cn(-c2ccc(O)cc2)c(-c2ccc(N3CCCC3)cc2)cc1=O
- MIC [1, 20]: 0.39 µg/mL (≈ 1.04 µM)
- MIC [2, 21]: 6.25 µg/mL (≈ 16.6 µM)
- MIC [3]: 1.56 µg/mL (≈ 4.14 µM)
- MIC [4]: 0.2 µg/mL (≈ 0.531 µM)
- MIC [5, 22]: 0.2 µg/mL (≈ 0.531 µM)
- MIC ([6]; T111, 20 h, 10^6 cells per ml): 1.56 µg/mL (≈ 4.14 µM)
- MIC [7]: 0.2 µg/mL (≈ 0.531 µM)
- MIC ([8]; T216, 20 h, 10^6 cells per ml): 1.56 µg/mL (≈ 4.14 µM)
- MIC [9, 23]: ≤ 0.05 µg/mL
- MIC ([10]; S68, 20 h): 3.13 µg/mL (≈ 8.32 µM)
- MIC [11]: 0.78 µg/mL (≈ 2.07 µM)
- MIC [12, 24]: 0.78 µg/mL (≈ 2.07 µM)
- MIC [13]: 3.13 µg/mL (≈ 8.32 µM)
- MIC ([14]; GN3379, 20 h): 3.13 µg/mL (≈ 8.32 µM)
- MIC [15, 25]: 0.1 µg/mL (≈ 0.266 µM)
- MIC [16, 26]: 0.78 µg/mL (≈ 2.07 µM)
- MIC ([17]; GN918, 20 h): 1.56 µg/mL (≈ 4.14 µM)
- MIC [18]: ≤ 0.05 µg/mL
- MIC [19, 27]: 0.78 µg/mL (≈ 2.07 µM)

SMILES: Cc1nc(-c2ccc(-c3cc(=O)c(C(=O)O)cn3-c3ccc(F)cc3)cc2)cs1
- MIC [1, 20]: 1.56 µg/mL (≈ 3.84 µM)
- MIC [2, 21]: 25 µg/mL (≈ 61.5 µM)
- MIC [3]: 6.25 µg/mL (≈ 15.4 µM)
- MIC [4]: 1.56 µg/mL (≈ 3.84 µM)
- MIC [5, 22]: 0.2 µg/mL (≈ 0.492 µM)
- MIC ([6]; T111, 20 h, 10^6 cells per ml): 6.25 µg/mL (≈ 15.4 µM)
- MIC [7]: 0.39 µg/mL (≈ 0.96 µM)
- MIC ([8]; T216, 20 h, 10^6 cells per ml): 3.13 µg/mL (≈ 7.7 µM)
- MIC [9, 23]: 0.1 µg/mL (≈ 0.246 µM)
- MIC [10, 28]: 12.5 µg/mL (≈ 30.8 µM)
- MIC [11]: 3.13 µg/mL (≈ 7.7 µM)
- MIC [12]: 6.25 µg/mL (≈ 15.4 µM)
- MIC [13]: 25 µg/mL (≈ 61.5 µM)
- MIC ([14]; 20 h, read-out: MIC): 25 µg/mL (≈ 61.5 µM)
- MIC [15, 25]: 0.2 µg/mL (≈ 0.492 µM)
- MIC [16]: 3.13 µg/mL (≈ 7.7 µM)
- MIC ([17]; GN918, 20 h): 3.13 µg/mL (≈ 7.7 µM)
- MIC [18]: 0.78 µg/mL (≈ 1.92 µM)
- MIC ([19]; GN76, 20 h): 3.13 µg/mL (≈ 7.7 µM)

SMILES: Cc1nc(-c2ccc(-c3cc(=O)c(C(=O)O)cn3-c3ccc(O)cc3C)cc2)co1
- MIC [1, 20]: 0.1 µg/mL (≈ 0.249 µM)
- MIC ([2]; IFO3445, 20 h): 3.13 µg/mL (≈ 7.78 µM)
- MIC [3]: 1.56 µg/mL (≈ 3.88 µM)
- MIC [4]: 0.39 µg/mL (≈ 0.969 µM)
- MIC [5, 22]: 0.1 µg/mL (≈ 0.249 µM)
- MIC ([6]; T111, 20 h, 10^6 cells per ml): 1.56 µg/mL (≈ 3.88 µM)
- MIC [7]: ≤ 0.05 µg/mL
- MIC ([8]; T216, 20 h, 10^6 cells per ml): 3.13 µg/mL (≈ 7.78 µM)
- MIC [9, 23]: 0.39 µg/mL (≈ 0.969 µM)
- MIC ([10]; S68, 20 h): 3.13 µg/mL (≈ 7.78 µM)
- MIC [11]: 0.2 µg/mL (≈ 0.497 µM)
- MIC [12, 24]: 0.39 µg/mL (≈ 0.969 µM)
- MIC [13]: 3.13 µg/mL (≈ 7.78 µM)
- MIC ([14]; 20 h, read-out: MIC): 6.25 µg/mL (≈ 15.5 µM)
- MIC [15, 25]: 0.1 µg/mL (≈ 0.249 µM)
- MIC [16, 26]: 0.2 µg/mL (≈ 0.497 µM)
- MIC ([17]; 20 h, read-out: MIC): 0.78 µg/mL (≈ 1.94 µM)
- MIC [18]: ≤ 0.05 µg/mL
- MIC [19, 27]: 0.78 µg/mL (≈ 1.94 µM)

SMILES: O=C(O)c1cn(-c2ccc(O)cc2)c(-c2ccc3sccc3c2)cc1=O
- MIC [1, 20]: 0.2 µg/mL (≈ 0.55 µM)
- MIC [2, 21]: 1.56 µg/mL (≈ 4.29 µM)
- MIC [3]: 0.78 µg/mL (≈ 2.15 µM)
- MIC [4]: ≤ 0.05 µg/mL
- MIC ([6]; T111, 10^6 cells per ml, 20 hours, read-out: MIC): 0.78 µg/mL (≈ 2.15 µM)
- MIC [7]: ≤ 0.05 µg/mL
- MIC [8, 29]: 0.39 µg/mL (≈ 1.07 µM)
- MIC [9, 23]: 0.1 µg/mL (≈ 0.275 µM)
- MIC [10, 28]: 3.13 µg/mL (≈ 8.61 µM)
- MIC [11]: 0.2 µg/mL (≈ 0.55 µM)
- MIC [12, 24]: 0.78 µg/mL (≈ 2.15 µM)
- MIC [13]: 0.78 µg/mL (≈ 2.15 µM)
- MIC ([14]; 20 h, read-out: MIC): 1.56 µg/mL (≈ 4.29 µM)
- MIC [15, 25]: 0.39 µg/mL (≈ 1.07 µM)
- MIC [16, 26]: 0.39 µg/mL (≈ 1.07 µM)
- MIC ([17]; 20 h, read-out: MIC): 0.39 µg/mL (≈ 1.07 µM)
- MIC [18]: ≤ 0.05 µg/mL
- MIC [19, 27]: 0.2 µg/mL (≈ 0.55 µM)

SMILES: Nc1ccc(-c2cc(=O)c(C(=O)O)cn2-c2ccc(F)cc2)cc1
- MIC [1, 20]: 0.78 µg/mL (≈ 2.41 µM)
- MIC [2, 21]: 6.15 µg/mL (≈ 19 µM)
- MIC [3]: 3.13 µg/mL (≈ 9.65 µM)
- MIC [4]: 0.2 µg/mL (≈ 0.617 µM)
- MIC [5]: 3.13 µg/mL (≈ 9.65 µM)
- MIC ([6]; T111, 20 h, 10^6 cells per ml): 6.25 µg/mL (≈ 19.3 µM)
- MIC [7]: 0.39 µg/mL (≈ 1.2 µM)
- MIC [8, 29]: 1.56 µg/mL (≈ 4.81 µM)
- MIC [9]: 3.13 µg/mL (≈ 9.65 µM)
- MIC [10, 28]: 12.5 µg/mL (≈ 38.5 µM)
- MIC [11]: 0.39 µg/mL (≈ 1.2 µM)
- MIC [12, 24]: 1.56 µg/mL (≈ 4.81 µM)
- MIC [13]: 6.25 µg/mL (≈ 19.3 µM)
- MIC ([14]; 20 h, read-out: MIC): 25 µg/mL (≈ 77.1 µM)
- MIC [15]: 3.13 µg/mL (≈ 9.65 µM)
- MIC [16, 26]: 0.78 µg/mL (≈ 2.41 µM)
- MIC ([17]; GN918, 20 h): 3.13 µg/mL (≈ 9.65 µM)
- MIC [18]: 0.2 µg/mL (≈ 0.617 µM)
- MIC [19, 27]: 0.78 µg/mL (≈ 2.41 µM)

SMILES: O=C(O)c1cn(-c2ccc(F)cc2)c(-c2ccc(Cl)cc2)cc1=O
- MIC [1]: 3.13 µg/mL (≈ 9.11 µM)
- MIC [2, 21]: > 100 µg/mL
- MIC [3]: 12.5 µg/mL (≈ 36.4 µM)
- MIC [4]: 0.39 µg/mL (≈ 1.13 µM)
- MIC [5, 22]: 6.25 µg/mL (≈ 18.2 µM)
- MIC ([6]; T111, 20 h, 10^6 cells per ml): 12.5 µg/mL (≈ 36.4 µM)
- MIC [7]: 1.56 µg/mL (≈ 4.54 µM)
- MIC [8, 29]: 6.25 µg/mL (≈ 18.2 µM)
- MIC [9]: 3.13 µg/mL (≈ 9.11 µM)
- MIC [10, 28]: 50 µg/mL (≈ 145 µM)
- MIC [11]: 3.13 µg/mL (≈ 9.11 µM)
- MIC [12, 24]: 6.25 µg/mL (≈ 18.2 µM)
- MIC [13]: 25 µg/mL (≈ 72.7 µM)
- MIC ([14]; 20 h, read-out: MIC): 50 µg/mL (≈ 145 µM)
- MIC [15, 25]: 6.25 µg/mL (≈ 18.2 µM)
- MIC [16, 26]: 6.25 µg/mL (≈ 18.2 µM)
- MIC ([17]; 20 h, read-out: MIC): 100 µg/mL (≈ 291 µM)
- MIC [18]: 0.39 µg/mL (≈ 1.13 µM)
- MIC ([19]; GN76, 20 h): 3.13 µg/mL (≈ 9.11 µM)
